In US12083089B2, “Compositions and methods for stimulating ventilatory and/or respiratory drive” (CASE WESTERN RESERVE UNIVERSITY, priority 2015, dated 2024):
Entries after “also recorded” stand apart in the source; their conditions may differ.

Tests used:
[1] = system: freely moving adult male Sprague-Dawley rats; experiment: Whole-body plethysmography of ventilatory parameters in morphine-treated rats
Protocol: Permissions, rats, surgical procedures and blinding of protocols. All studies were carried out in accordance with the NIH Guide for the Care and Use of Laboratory Animals (NIH Publication No. […]) revised in 1996. The protocols were approved by the Animal Care and Use Committees of the University of Virginia, Case Western Reserve University and Loma Linda University. In addition, all studies were carried out in compliance with the ARRIVE (Animal Research: Reporting of In Vivo Experiments) guidelines. Adult male Sprague-Dawley rats (Harlan, Madison, WI, USA) were implanted with jugular vein catheters under 2% isoflurane anesthesia and some rats received femoral arterial catheters. The rats were allowed at least four days to recover from surgery before use. All arterial catheters were flushed daily with heparin solution (50 units of heparin in phosphate-buffered saline at 0.1 M, pH 7.4). All catheters were flushed with phosphate-buffered saline (0.1 M, pH 7.4) approximately four hours before commencement of the experiments. All studies were performed in a quiet laboratory with relative humidity of 49±2% and room temperature of 21.4±0.2° C. […] Also, please note that the antinociception and ventilatory studies were done in separate groups of rats so as to not complicate the respiratory measurements. The recording (plethysmography, antinociception) sessions and the arterial blood gas assays were done by a particular investigator who administered the opioid, vehicle or test drug such as d-cystine diME. The syringes containing the vehicle or test drug were made up by another investigator, such that the investigator running the actual experiment was blinded to the treatment protocol. In every case, the data files resulting from a particular study were first collated and analyzed by another investigator in the group.
Ventilatory parameters were recorded in freely moving rats by whole body plethysmography (PLY3223; Data Sciences International, St. Paul, MN). The rats were placed in individual chambers and given 60 min to acclimatize to allow true resting ventilatory parameters to be established. […] The rats received another injection of vehicle or 1-NACme (500 μmol/kg, IV) 15 min later and ventilatory parameters were recorded for a further 60 min.
The provided software (Fine Pointe, BUXCO) constantly corrected digitized values for changes in chamber temperature and humidity. Pressure changes associated with the respiratory waveforms were then converted to volumes (i.e., TV, PIF and PEF) using the algorithm of Epstein and colleagues. Specifically, factoring in chamber temperature and humidity, the cycle analyzers filtered the acquired signals, and BUXCO algorithms (Fine Pointe) generated an array of box flow data that identified a waveform segment as an acceptable breath. From that data vector, the minimum and maximum values were determined. Flows at this point were considered to be “box flow” signals.
The recorded data (1 min bins) and derived parameters, Vt/Ti and Response Area (cumulative percent changes from pre-values) were taken for statistical analyses. The pre-drug 1 min bins excluded occasional marked deviations from resting due to movements or scratching by the rats. These exclusions ensured accurate determinations of baseline parameters. The data are presented as mean±SEM. All data unless other-wise stated (see immediately below) were analyzed by one-way or two-way analysis of variance followed by Student's modified t test with Bonferroni corrections for multiple comparisons between means using the error mean square terms from each ANOVA. A value of P<0.05 denoted the initial level of statistical significance that was modified according to the number of comparisons between means.

[2] = system: conscious rats; experiment: Morphine-induced analgesia (paw withdrawal latency assay), Example 1; assay type: in vivo, rat; settings: 500 μmol/kg i.v.; 10 mg/kg of morphine; FIG. 13
[3] = system: freely moving rats; experiment: Hot-plate (hind-paw withdrawal) latency (HPL), Hargreaves's test, morphine 10 mg/kg; assay type: in vivo, rat
[4] = system: freely moving rats; experiment: Tail-flick latency (TFL) test; assay type: in vivo, rat
[5] = system: conscious male adult Sprague-Dawley rats; experiment: Plethysmographic ventilatory responses to test compounds in conscious rats; assay type: in vivo, rat
[6] = system: freely moving rats; experiment: Arterial blood-gas chemistry and A-a gradient in morphine-treated rats; assay type: in vivo, rat
[7] = system: rats; experiment: Hemodynamics (preliminary toxicology); assay type: in vivo, rat; settings: 500 μmol/kg, i.v.
Excerpt: FIGS. 11(A-C) illustrate plots showing the effects of test agents (500 μmol/kg, i.v.) on hemodynamic variables. Data are presented mean±SEM (n=8 rats per group).

[8] = system: conscious (adult male) C57 black 6 (C57BL6) mice; experiment: Ventilatory responses in conscious mice; assay type: in vivo, mouse
[9] = system: adult male rats; experiment: Hargreaves Hind-paw Latency Test, morphine 1 mg/kg; assay type: in vivo, rat; settings: for effect on the antinociception actions of morphine (Hargreaves): 500 μmol/kg IV with morphine sulfate 1.0 mg/kg IV; for thermal nociception (Hargreaves Testing) when given alone: 500 μmol/kg IV, tested 20 to 30 min post-injection; for Hargreaves hind-paw withdrawal latency: FIG. 26 study
[10] = system: adult male rats; experiment: Von Frey Test, morphine 1 mg/kg; assay type: in vivo, rat; settings: for force needed to initiate hind-paw withdrawal (Von Frey): FIG. 27 study
[11] = system: humans; settings: oral NAC three times daily, exposed acutely to isocapnic hypoxia; cited from earlier work
[12] = 500 μmol/kg IV in morphine (10 mg/kg IV)-treated rats, FIG. 21
[13] = freely moving rats, morphine 10 mg/kg IV, then d-cystine diEE 500 μmol/kg IV 15 min later
[14] = 500 μmol/kg IV, before morphine
[15] = drug 500 μmol/kg IV 20 min before morphine 10 mg/kg IV

## CCOC(=O)[C@H](N)CSSC[C@@H](N)C(=O)OCC [D-Cystine diEE, D-Cystine diethylester]
[1]; [12]
  initial peak responses: Freq, TV, MV, PIF, PEF, EF50, inspiratory and expiratory drive: pronounced increases
  total response: Freq: relatively minor increase in Freq
  total response: TV, MV, PIF, PEF, PEF/PIF, EF50, inspiratory and expiratory drives: robust sustained increases
[1]; bolus 500 μmol/kg i.v. (D-CYSee 2×500 μmol/kg) after morphine 10 mg/kg i.v., conscious rats, Example 1
  ventilatory depressant effects of morphine incl. tidal volume/inspiratory time (Vt/Ti): immediate and sustained reversal
[1]; d-cystine diEE 500 μmol/kg IV, 15 min after morphine 10 mg/kg IV
  duration of the brief increase in Freq: about 5 min
[1]; [13]
  changes in EF50: further prompt and sustained increase
  changes in PEF/PIF: decrease in PEF/PIF immediately upon injection
  changes in expiratory drive (TV/Te): substantial and sustained increase
  changes in expiratory time (Te): without greatly affecting Te
  changes in frequency of breathing (Freq): brief increase in Freq of about 5 min in duration that was followed by a gradual and sustained elevation
  changes in inspiratory drive (TV/Ti): noticeable but partial recovery
  changes in inspiratory time (Ti): brief decrease in Ti
  changes in minute ventilation (MV): prompt and long-lasting reversal
  changes in peak expiratory flow (PEF): marked increase in PEF to levels well above pre-morphine levels
  changes in peak inspiratory flow (PIF): prompt and relatively sustained reversal
  changes in the ratio of Te/Ti: similarly
[2]
  morphine analgesia: does not attenuate
[3]; [14]
  HPL after the drug alone: transient increase
  time within which the transient increase in HPL resolved: ≤ 15 min
[3]; [15]
  antinociceptive effects of morphine (HPL) in drug-pretreated rats: enhanced
[4]; [14]
  TFL after the drug alone: transient increase
  time within which the transient increase in TFL resolved: ≤ 15 min
[4]; [15]
  antinociceptive effects of morphine (TFL) in drug-pretreated rats: enhanced

## COC(=O)[C@H](N)CSSC[C@@H](N)C(=O)OC [D-Cystine diME, D-Cystine dimethylester]
[1]; rat, in vivo
  immediate effects on Freq, TV or MV: minimal immediate effects
[5]; 500 μmol/kg, i.v.
  duration of increases in frequency of breathing, tidal volume and minute ventilation: 20 min
[5]; 500 μmol/kg, i.v., FIG. 2
  total ventilatory responses recorded over the 30 min post-injection period (% baseline), comparison of efficacy: most efficacious of the test compounds
[5]; 500 mol/kg, i.v.
  frequency of breathing, tidal volume and minute ventilation (response): robust increases
  how sustained the ventilatory effect is, compared with D-CYSee and L-CYSee: most sustained effect
[5]; FIG. 3
  dose-dependency of ventilatory responses: clearly dose-dependent
[6]; bolus 500 μmol/kg i.v. after morphine 10 mg/kg i.v., Example 1
  deleterious actions of morphine on ABG chemistry and A-a gradient: reversed
[6]; freely moving rats, morphine 10 mg/kg IV, then drug 500 μmol/kg IV 15 min later, FIG. 18
  changes in ABG chemistry (pH, pCO2, pO2 and sO2): reversed immediately
[6]; freely moving rats, morphine 10 mg/kg IV, then drug 500 μmol/kg IV 15 min later, FIG. 19
  changes in A-a gradient: reversed immediately
[7]
  hemodynamic responses (FIG. 11): minimal responses; also recorded: did not elicit significant responses
[8]
  duration of increases in frequency of breathing, tidal volume and minute ventilation: approximately 20 min
[8]; 250 mol/kg dose
  frequency of breathing, tidal volume and minute ventilation (response): robust increases
[9]; listed as D-cystine diME
  effect on the antinociception actions of morphine (Hargreaves): not different from each other
[9]; listed as d-cystine diME
  effect on the antinociception actions of morphine (Hargreaves): neither thiolester affected
  thermal nociception (Hargreaves Testing) when given alone: neither d-cystine diME nor L-cystine diME affected
[9]
  thermal nociception (Hargreaves Testing) when given alone: not a significant difference
[9]; Morphine+D-Cystine diME
  Hargreaves hind-paw withdrawal latency: 16.9 ± 1.0 s
[9]; given alone, D-cystine diME 500 μmol/kg IV, morphine sulfate 1 mg/kg IV
  Hargreaves hind-paw withdrawal latency: 12.9 ± 1.0 s
[10]; 500 μmol/kg IV with morphine sulfate 1.0 mg/kg IV, listed as d-cystine diME
  effect on the antinociception actions of morphine (Von Frey): neither thiolester affected
[10]; 500 μmol/kg IV, tested 20 to 30 min post-injection, listed as d-cystine diME
  mechanical allodynia (Von Frey Testing) when given alone: neither d-cystine diME nor L-cystine diME affected
[10]; Morphine+D-cystine diME
  force needed to initiate hind-paw withdrawal (Von Frey): 176±5 grams
[10]; given alone, D-cystine diME 500 μmol/kg IV, morphine 1 mg/kg IV
  force needed to initiate hind-paw withdrawal (Von Frey): 144±8 grams

## CC(=O)N[C@@H](CS)C(=O)O [NAC, N-acetylcysteine]
[11]
  increase in minute ventilation: 24±4%
